Test results as given in US20250057802A1, “BROAD-SPECTRUM ANTIVIRAL DRUGS” (FRAUNHOFER-GESELLSCHAFT ZUR FÖRDERUNG DER ANGEWANDTEN …, priority 2021, published 2025).

Assays:
RSV = experiment: in vitro RSV inhibitory assay (virus pre-incubated with compound, HEp-2 cells, infected cells counted); type: cell-based, Human orthopneumovirus (RSV); conditions: human respiratory syncytial virus, 10 min; RSV incubated with compound 10 min at 37° C., added to HEp-2 cells, 2 dpi
SARS-CoV-2 = SARS-CoV-2 viral inhibition assay on Vero E6 cells; type: cell-based; conditions: Severe acute respiratory syndrome coronavirus 2, Vero C1008, virus incubated with compound 10 min at 37° C., 27 hours post-infection
HEp-2 cells = experiment: in vitro cytotoxicity analysis (CellTiter-Glo Luminescent Cell Viability Assay); type: cell-based, human; set-up: unit not given here; conditions: without RSV-infection, 48 h post-treatment
Method: FIG. 1A, FIG. 2A, FIG. 3A, FIG. 4A, FIG. 5A, and FIG. 6A show dose-response curves for identified inhibitors against RSV. RSV was incubated with increasing concentrations of compounds for 10 min at 37° C. before the compound-virus mixtures were added to human epithelial cells (HEp-2). 2 dpi, infection rates were measured by counting infected cells. Vehicle-treated cells were set as the reference at 100% and used to normalize the data. Shown values represent mean±SD (n=3). The IC50 was determined by fitting the data to a dose-response curve using nonlinear regression analysis (GraphPad Prism, version 6.02). FIG. 1B, FIG. 2B, FIG. 3B, FIG. 4B, FIG. 5B, and FIG. 6B show dose-response curves for identified inhibitors (the same as identified at the top of the respective figures) in in vitro cytotoxicity analysis. HEp-2 cells were treated with increasing concentration of compounds without RSV-infection to assess potential cytotoxicity of the compounds. 48 h post-treatment cells were analyzed using CellTiter-Glo® Luminescent Cell Viability Assay (Promega) to determine cell viability rates. Vehicle-treated cells were set as the reference at 100% of viability and used to normalize the data. Shown values represent mean+SD (n=3).

stability in solution = type: physicochemical; conditions: 500 μM in DMSO/PBS (5:95 v/v); room temperature or 37° C.; versus 4,5-DCQA (reference)

| Structure (SMILES) | IC50 (RSV) [nM] | IC50 (SARS-CoV-2) [nM] | Cytotoxic concentration on HEp-2 cells (HEp-2 cells) | stability in solution (stability in solution) |
| --- | --- | --- | --- | --- |
| O=C(/C=C/c1ccc(O)c(O)c1)O[C@@H]1[C@H](O)C[C@@](O)(C(=O)O)C[C@H]1OC(=O)/C=C/c1ccc(O)c(O)c1 [4,5-DCQA, reference compound] | 1090 | 218 | >80000 |  |
| O=C(OCCCOC(=O)c1cc(O)c(O)c(O)c1)c1cc(O)c(O)c(O)c1 [Compound 1, 3-(3,4,5-trihydroxybenzoyl)oxypropyl 3,4,5-trihydroxybenzoate] | 129 |  | 72737 |  |
| O=C(OCCCCCOC(=O)c1cc(O)c(O)c(O)c1)c1cc(O)c(O)c(O)c1 [Compound 2, 5-(3,4,5-trihydroxybenzoyl)oxypentyl 3,4,5-trihydroxybenzoate] | 4960 |  | >80000 |  |
| O=C(OCCCCCCCCOC(=O)c1cc(O)c(O)c(O)c1)c1cc(O)c(O)c(O)c1 [Compound 3, 8-(3,4,5-trihydroxybenzoyl)oxyoctyl 3,4,5-trihydroxybenzoate] | 145 |  | 9197 |  |
| CC(C)(COC(=O)c1cc(O)c(O)c(O)c1)COC(=O)c1cc(O)c(O)c(O)c1 [Compound 4, [2,2-dimethyl-3-(3,4,5-trihydroxybenzoyl)oxy-propyl]3,4,5-trihydroxybenzoate] | 162 |  | 63163 |  |
| O=C(OCCOCCOC(=O)c1cc(O)c(O)c(O)c1)c1cc(O)c(O)c(O)c1 [Compound 5, 2-[2-(3,4,5-trihydroxybenzoyl)oxyethoxy]ethyl 3,4,5-trihydroxybenzoate] | 9330 |  | 638066 |  |
| O=C(O[C@@H]1CCC[C@H](OC(=O)c2cc(O)c(O)c(O)c2)C1)c1cc(O)c(O)c(O)c1 [Compound 6, [(1R,3S)-3-(3,4,5-trihydroxybenzoyl)oxycyclohexyl]3,4,5-trihydroxybenzoate] | 165 |  | 61709 |  |
| O=C(OCC(O)COC(=O)c1cc(O)c(O)c(O)c1)c1cc(O)c(O)c(O)c1 [Compound 7, [2-hydroxy-3-(3,4,5-trihydroxybenzoyl)oxy-propyl]3,4,5-trihydroxybenzoate] | 339 |  | >80000 |  |
| NC(COC(=O)c1cc(O)c(O)c(O)c1)COC(=O)c1cc(O)c(O)c(O)c1 [Compound 8, [2-amino-3-(3,4,5-trihydroxybenzoyl)oxy-propyl]3,4,5-trihydroxybenzoate] | 87.7 |  | 66234 |  |
| O=C(OCC(COC(=O)c1cc(O)c(O)c(O)c1)OC(=O)c1cc(O)c(O)c(O)c1)c1cc(O)c(O)c(O)c1 [Compound 9, 2,3-bis[(3,4,5-trihydroxybenzoyl)oxy]propyl 3,4,5-trihydroxybenzoate] | 55.5 |  | 49099.5 |  |
| O=C(OCC(COC(=O)c1cc(O)c(O)c(O)c1)COC(=O)c1cc(O)c(O)c(O)c1)c1cc(O)c(O)c(O)c1 [Compound 10, [3-(3,4,5-trihydroxybenzoyl)oxy-2-[(3,4,5-trihydroxybenzoyl)oxymethyl]propyl]3,4,5-trihydroxybenzoate] | 47.2 |  | 75145 |  |
| CC(COC(=O)c1cc(O)c(O)c(O)c1)(COC(=O)c1cc(O)c(O)c(O)c1)COC(=O)c1cc(O)c(O)c(O)c1 [Compound 11, [2-methyl-3-(3,4,5-trihydroxybenzoyl)oxy-2-[(3,4,5-trihydroxybenzoyl)oxymethyl]-propyl]3,4,5-trihydroxybenzoate] | 36.7 |  | 47303 |  |
| CC(COC(=O)c1ccccc1)(COC(=O)c1cc(O)c(O)c(O)c1)COC(=O)c1cc(O)c(O)c(O)c1 [Compound 12, [2-(benzoyloxymethyl)-2-methyl-3-(3,4,5-trihydroxybenzoyl)oxy-propyl]3,4,5-trihydroxybenzoate] | 105 |  | 34098.5 |  |
| CC(COC(=O)c1ccccc1)(COC(=O)c1ccccc1)COC(=O)c1cc(O)c(O)c(O)c1 [Compound 13, [3-benzoyloxy-2-(benzoyloxymethyl)-2-methyl-propyl]3,4,5-trihydroxybenzoate] | 480 |  | 13042 |  |
| O=C(NCCCNC(=O)c1cc(O)c(O)c(O)c1)c1cc(O)c(O)c(O)c1 [Compound 14, 3,4,5-trihydroxy-N-[3-[(3,4,5-trihydroxybenzoyl)amino]propyl]benzamide] | 367 |  | 15677 |  |
| O=C(NCCCCCNC(=O)c1cc(O)c(O)c(O)c1)c1cc(O)c(O)c(O)c1 [Compound 15, 3,4,5-trihydroxy-N-[5-[(3,4,5-trihydroxybenzoyl)amino]pentyl]benzamide] | 408 |  | 45401 |  |
| O=C(NCCCCCCCCCCNC(=O)c1cc(O)c(O)c(O)c1)c1cc(O)c(O)c(O)c1 [Compound 16, 3,4,5-trihydroxy-N-[10-[(3,4,5-trihydroxybenzoyl)amino]decyl]benzamide] | 767 |  | >80000 |  |
| O=C(NCCN(CCNC(=O)c1cc(O)c(O)c(O)c1)C(=O)c1cc(O)c(O)c(O)c1)c1cc(O)c(O)c(O)c1 [Compound 17, 3,4,5-trihydroxy-N-[2-[(3,4,5-trihydroxybenzoyl)-[2-[(3,4,5-trihydroxybenzoyl)-amino]-ethyl]amino]ethyl]benzamide] | 155 |  | 36216 |  |
| CC(CNC(=O)c1cc(O)c(O)c(O)c1)(CNC(=O)c1cc(O)c(O)c(O)c1)CNC(=O)c1cc(O)c(O)c(O)c1 [Compound 18, 3,4,5-trihydroxy-N-[2-methyl-3-[(3,4,5-trihydroxybenzoyl)amino]-2-[[(3,4,5-trihydroxy-benzoyl)amino]methyl]propyl]benzamide] | 59.5 |  | >80000 |  |
| CC(CNC(=O)c1ccc(O)cc1)(CNC(=O)c1ccc(O)cc1)CNC(=O)c1ccc(O)cc1 [Compound 19, 4-hydroxy-N-[3-[(4-hydroxybenzoyl)amino]-2-[[(4-hydroxybenzoyl)amino]methyl]-2-methyl-propyl]benzamide] |  |  | >80000 |  |
| CC(CNC(=O)c1cccc(O)c1)(CNC(=O)c1cccc(O)c1)CNC(=O)c1cccc(O)c1 [Compound 20, 3-hydroxy-N-[3-[(3-hydroxybenzoyl)amino]-2-[[(3-hydroxybenzoyl)amino]methyl]-2-methyl-propyl]benzamide] |  |  | 76260 |  |
| CC(CNC(=O)c1ccc2c(c1)OCO2)(CNC(=O)c1ccc2c(c1)OCO2)CNC(=O)c1ccc2c(c1)OCO2 [Compound 21, N-[3-(1,3-benzodioxole-5-carbonylamino)-2-[(1,3-benzodioxole-5-carbonylamino)-methyl]-2-methyl-propyl]-1,3-benzodioxole-5-carboxamide] |  |  | >80000 |  |
| CC(CNC(=O)c1ccc(O)cc1O)(CNC(=O)c1ccc(O)cc1O)CNC(=O)c1ccc(O)cc1O [Compound 22, N-[3-[(2,4-dihydroxybenzoyl)amino]-2-[[(2,4-dihydroxybenzoyl)amino]methyl]-2-methyl-propyl]-2,4-dihydroxy-benzamide] |  | 75.1 | 17473 |  |
| CC(CNC(=O)c1ccc(O)c(O)c1)(CNC(=O)c1ccc(O)c(O)c1)CNC(=O)c1ccc(O)c(O)c1 [Compound 23, N-[3-[(3,4-dihydroxybenzoyl)amino]-2-[[(3,4-dihydroxybenzoyl)amino]methyl]-2-methyl-propyl]-3,4-dihydroxy-benzamide] | 35.7 | 26 | >80000 | improved stability |
| CC(CNC(=O)c1cccc(O)c1O)(CNC(=O)c1cccc(O)c1O)CNC(=O)c1cccc(O)c1O [Compound 24, N-[3-[(2,3-dihydroxybenzoyl)amino]-2-[[(2,3-dihydroxybenzoyl)amino]methyl]-2-methyl-propyl]-2,3-dihydroxy-benzamide] |  |  | 5822.5 |  |
